Patent publication US20090118194A1, “Measurement of melanocortin peptides and uses thereof” (Auckland UniServices Limited, priority 2002, published 2009)
Entries after “also recorded” stand apart in the source; their conditions may differ.

How the values were obtained:
hypothalamic proteins = assay: Hypothalamic proteins after subcutaneous injection of new-born rats for 14 days; format: in vivo, rat; details: hypothalamus, s.c. for 14 days
Experimental: Tables 3 and 4 represent data from a neonatal study, where the two MSH peptides were injected subcutaneously into new-born rats for 14 days, and the changes in hypothalamic proteins assessed with the same method as the above study.
Adult female Wistar rats were housed in plastic cages and kept on a 12-h dark/light cycle. Animals received tap water and rat pellets ad libitum and were mated with males of the same strain. Each litter of new-born Wistar rats was culled to 9 pups per mother.
PBS or freshly prepared peptide solutions made up freshly in PBS containing 0.1% BSA were injected subcutaneously once per day in a volume of 40 μl for 14 days. Animals were injected on day 14 and 1 h later they were euthanised using sodium pentobarbital.

3T3 L1 adipocytes = assay: Triglyceride release from 3T3 L1 adipocytes (peptide stimulation assay); format: cell-based, murine; details: 4 hours, 2 assays combined
Experimental: • 2.1 The objective of this study was to determine the effects of a-MSH and desacetyl a-MSH on leptin and triglyceride production in murine 3T3 L1 adipocytes. • 2.2 Pre-adipocytes were seeded in 6-well plates and 2 days post confluence (Day 2) were differentiated with […] indomethacin+5 ug/mL insulin (described in previous documents). • 2.3 On Day 13 adipocytes were stimulated with 4 doses each of a-MSH and desacetyl a-MSH (or no peptide added) for 4 hours. • 2.4 Medium was removed from the wells and leptin and triglyceride levels measured. • 2.5 Intracytoplasmic lipid accumulation was measured by staining with Oil red O.
• 4.1 Medium=a-MEM+0.5% BSA (100 mL a-MEM+0.5 g BSA) • 4.2 Doses of a-MSH and da-MSH (stocks in −80° C. freezer=1 ug/ul), using MW of a-MSH. • 1 M=1665 g/L=1665 mg/mL • 1 mM=1.665 mg/mL • 1 uM=1.665 ug/mL • 1.665 ug/mL=3.3 ug/2 mL in each well • 1/10 dilution of 1 ug/ul (stock)=0.1 ug/ul. 33 ul=3.3 ug. • Prepare 1/10 dilution of freezer stock (1 ug/ul) to make 0.1 ug/ul, using a-MEM+0.5% BSA as diluent. • Make 3 serial dilutions of 1/10 to add 33 ul to each well in 6-well plate. • Doses are in triplicate wells, so require 3×33=99 ul for each dose.
• 5.1 Assay is performed on Day 14 after initiation of cell differentiation. […]

primary rat osteoblasts = assay: Primary rat osteoblast proliferation assay ([3H]thymidine incorporation, cell number); format: cell-based
From the text: Primary rat osteoblasts were isolated from 20 day fetal rat calvariae. (The use of animals for these studies was approved by the Auckland Animal Ethics Committee.) Calvariae were excised and the frontal and parietal bones, free of suture and periosteal tissue, were collected and sequentially digested using collagenase as previously described (Cornish J, Callon K E, Lin C Q X, Xiao C L, Mulvey T B, Cooper G J S, Reid I R Trifluoroacetate, a contaminant in puritied proteins, inhibits proliferation of osteoblasts and chondrocytes. Amer J Physiol Endocrinol Metab 277: E779-E783, 1999). Primary rat osteoblasts were grown in DMEM supplemented with 10% FCS, 50 U/ml penicillin and 50 μg/ml streptomycin. After 48 hour, the medium was changed to MEM. Confluence was reached within 5-6 days, at which time the cells were subcultured into 10 cm culture plates for RNA preparation or 24 well plates for proliferation assays.
Primary rat osteoblasts were subcultured into 24 well plates at a density of 5×10^4 cells/ml/well in MEM, 5% FCS for 24 hours. Cells were growth arrested in MEM, 0.1% bovine serum albumin (BSA) for 24 hour and then fresh media and experimental compounds were added for a further 24 hours. Cells were pulsed with [^3H]thymidine (0.5 μCi/well) 2 hours before the end of the experimental incubation. The experiment was terminated and both cell numbers and thymidine incorporation were assessed. Cell numbers were analysed by detaching cells from the wells by exposure to trypsin/EDTA (0.05%/0.53 mM) for approximately 5 minutes at 37° C. Counting was performed in a hemocytometer chamber. Results are expressed per well. [^3H]Thymidine incorporation was analysed by washing the cells in MEM followed by the addition of 10% trichloroacetic acid. The precipitate was washed twice with ethnol:ether (3:1) and the wells desiccated at room temperature. The residue was dissolved in 2M KOH at 55° C. for 30 minutes, neutralized with 1M HCl, and an aliquot counted for radioactivity. Results are expressed as dpm per well. Each experiment was performed at least three times using experimental groups consisting of at least six wells.
Data are presented as mean±SEM. The significance of differences between groups was determined using Student's t tests for unpaired data and a 5% significance level. The comparisons to be made in each experiment were specified a priori, so no adjustment for multiple comparisons was necessary. Where several experiments have been shown in one figure, the data are expressed as the ratio of results in treatment groups to those in the control group and the ‘P’ values shown were calculated using the data from the individual experiments, before the data were pooled.

SYSMEHFRWGKPV [desacetyl-α-MSH, non-acetylated form of α-MSH, obtained from Bachem]
ATP synthase, H+ transporting (p1379), level compared to control (hypothalamic proteins): 1.7 fold decrease
RIKEN cDNA0610011D08 (p1381), level compared to control (hypothalamic proteins): 3.3 fold increase
cofilin (p1854), level compared to control (hypothalamic proteins): 1.9 fold increase
creatine kinase brain (p1079), level compared to control (hypothalamic proteins): 1.9 fold increase
creatine kinase brain (p1251), level compared to control (hypothalamic proteins): 2.1 fold increase
dihydropyrimidinase-like 2 (p537), level compared to control (hypothalamic proteins): 2.5 fold decrease
heat shock protein (p1445), level compared to control (hypothalamic proteins): 2.0 fold increase
hypothetical protein XP_112457 (p1936), level compared to control (hypothalamic proteins): 2.2 fold increase
prohibitin homologue (p1458), level compared to control (hypothalamic proteins): 1.7 fold increase
protein kinase C inhibitor (p1790), level compared to control (hypothalamic proteins): 1.8 fold increase
similar to SH3-containing protein SH3GLB2 (p1557), level compared to control (hypothalamic proteins): 4.0 fold increase
similar to phosphoglycerate kinase (p1363), level compared to control (hypothalamic proteins): 1.6 fold increase
spectrin fragment (p1362), level compared to control (hypothalamic proteins): 2.5 fold decrease
stathmin (p1610), level compared to control (hypothalamic proteins): 2.6 fold increase
stathmin P*Ser38 (p1588), level compared to control (hypothalamic proteins): 1.7 fold increase
triosephosphate isomerase (p1339), level compared to control (hypothalamic proteins): 2.1 fold increase
tubulin beta (p1520), level compared to control (hypothalamic proteins): 1.6 fold increase
TRIGLYCERIDE RESPONSE, MEAN (3T3 L1 adipocytes; 100 nM): 111.4 % OF CONTROL
TRIGLYCERIDE RESPONSE, MEAN (3T3 L1 adipocytes; 1000 nM): 110.0 % OF CONTROL
antagonism of α-MSH stimulated [3H] thymidine uptake (primary rat osteoblasts; 10^−7 M against α-MSH 10^−8 M and 10^−7 M, growth arrested primary rat osteoblasts): inhibited two doses of α-MSH (10^−8 M and 10^−7 M) from stimulating [^3H] thymidine uptake; also recorded: antagonise α-MSH stimulated stimulation of thymidine incorporation
osteoblast proliferation (primary rat osteoblasts; 10^−7 M and 10^−8 M, alone): no significant effect on osteoblast proliferation in two out of three experiments
thymidine incorporation or cell numbers (proliferation) (primary rat osteoblasts; growth arrested primary rat osteoblasts, 10^−7 M, alone): did not stimulate thymidine incorporation or cells numbers
